{"source": "patent US9408847B2", "about": "“Combination therapy” (Novartis AG, priority 2012, dated 2016)", "system": "MCF7 tumor xenograft", "experiment": "MCF7 tumor xenograft model in vivo", "conditions": "female nude mice", "protocol": "MCF-7 cells were purchased from American Type Culture Collection (ATCC). They were tested free of mycoplasma and viral contamination in the IMPACT VIII PCR assay panel (RADIL, MU Research Animal Diagnostic Laboratory, Columbia, Mo.). They were cultured in EMEM medium (ATCC#30-2003) containing 10% heat inactivated fetal bovine serum, and were at passage 18 for this experiment. Female, nude mice from Harlan (Hsd:Athymic Nude-Foxn1nu) were used in this xenograft study. Mice received 17b-estradiol pellets (0.18 mg/pellet, 90-day release) (Innovative research of America Catalog # NE-121) implanted between the shoulder blades three days before cell implantation. Tumor volume and body weight were monitored throughout the experiment.", "data": [{"smiles": "COC1CC2CC[C@@H](C)[C@@](O)(O2)C(=O)C(=O)N2CCCC[C@H]2C(=O)OC(C(C)C[C@@H]2CCC(OCCO)[C@H](OC)C2)CC(=O)C(C)/C=C(\\C)[C@@H](O)C(OC)C(=O)[C@H](C)CC(C)/C=C/C=C/C=C/1C", "note": "(stereo in doubt) [Compound B, (1R,9S,12S,15R,16E,18R,19R,21R,23S,24E,26E,28E,30S,32S,35R)-1,18-dihydroxy-12-{(1R)-2-[(1S,3R,4R)-4-(2-hydroxyethoxy)-3-methoxycyclohexyl]-1-methylethyl}-19,30-dimethoxy-15,17,21,23,29,35-hexamethyl-11,36-dioxa-4-aza-tricyclo[30.3.1.04,9]hexatriaconta-16,24,26,28-tetraene-2,3,10,14,20-pentaone]", "values": [{"measurement": "T/T0", "setting": "monotherapy at 5 mg/kg", "value": "−21", "unit": "%"}]}, {"smiles": "CN(C)C(=O)c1cc2cnc(Nc3ccc(N4CCNCC4)cn3)nc2n1C1CCCC1", "note": "[Compound A]", "values": [{"measurement": "T/T0", "setting": "monotherapy at 75 mg/kg", "value": "−9", "unit": "%"}]}]}
